{"source": "patent US8344022B2", "about": "“Vaginal health products” (Kimberly-Clark Worldwide, Inc., priority 2004, dated 2013)", "key": {"human skin keratinocytes": {"test_system": "human skin keratinocytes", "test": "Keratinocyte proliferation, 96-well Cell Titer 96 assay", "format": "cell-based", "conditions": "for Cell Proliferation, Mean (absorbance at 490 nm) / Cell Proliferation, Median (absorbance at 490 nm): 48 hours, n=5", "method": "The proliferative response of these human skin keratinocytes to the test compounds was measured in a 96-well assay system using keratinocyte basal medium (KBM, Clonetics, catalog number CC-3103) as a control. […] In addition, 100 μl of vehicle KBM was added to 5 wells as control. […] The spectrophotometric absorbance of each well was read at 490 nm."}, "stratum corneum": {"test_system": "stratum corneum", "test": "Dansyl chloride cell renewal study in healthy female volunteers", "format": "in vivo, human", "from_the_text": "The stratum corneum renewal time is the time taken for the whole thickness of the stratum corneum to be exfoliated and replaced by new cells from the dividing epidermis. This renewal time is a fundamental indicator of skin health. […] See Jansen L H, Hojyo-Tomoko M T, Kligman A M., Improved fluorescence staining technique for estimating turnover of the human stratum corneum, Br J Dermatol., 90, 9-12, 1974; Ridge B D, Batt M D, Palmer H E, Jarrett A, The dansyl chloride technique for stratum corneum renewal as an indicator of changes in epidermal mitotic activity following topical treatment., Br J Dermatol., 118, 167-74, 1988; Grove G L, Kligman A M, Age-associated changes in human epidermal cell renewal., J Geron., 38, 137-142, 1983. The time required for the dye to disappear is therefore an indication of the turnover time of the stratum corneum. Therefore, any differences in the time required for the dye to disappear from treated and non-treated sites can be considered to be an expression of that product's ability to enhance epidermal renewal.\nA dansyl chloride cell renewal study was conducted in healthy female volunteers ranging from 43-64 years of age. The study consisted of a two-week treatment period during which time the products were applied topically twice daily, including on weekend days, to the test sites. The area of application was designated, approximately 5 cm×10 cm on the upper inner arm. The other arm served as a control with no product application. […] Eight females received jasmonic acid and seven females received gibberellic acid.\nThe time required for a marker dye to disappear was used as the measure of cell renewal rate."}, "[1]": {"test_system": "Human cervical epithelial cells (ME-180)", "test": "ME-180 cell growth with jasmonic acid (hemocytometer counting)", "format": "cell-based", "conditions": "1, 10 and 100 μg/ml, two days", "method": "Human cervical epithelial cells (ME-180, ATCC) were propagated in culture at 37° C. using 5% CO2 in McCoy's 5A media (Invitrogen) with 10% heat-inactivated fetal bovine serum (Invitrogen). Jasmonic acid (Sigma) was diluted in the ME-180 media to 100, 10, and 1 microgram/mL.\nME-180 cells were plated in 12-well plates at a concentration of 5×10^4 cells per well in 2 mL of media. The cells were allowed to grow for 1 day. Cells in three wells were counted by trypsinizing and using a hemocytometer to determine cell number on day zero. The media was removed from all other wells and was replaced with fresh media, 100, 10, or 1 μg/mL jasmonic acid-containing media (2 mL) in triplicate. Cells were counted on days 1 and 2 to determine the effect of the jasmonic acid on cell growth."}, "[2]": {"test_system": "fibronectin production in human skin fibroblast cell line", "test": "Fibronectin production by human skin fibroblasts (Takara EIA MK115)", "format": "cell-based", "conditions": "for fibronectin production, Mean (absorbance at 450 nm) / fibronectin production, Median (absorbance at 450 nm): 48 hours, n=2", "method": "The cells were first grown in a 96-well assay system using Dulbecco's Modified Eagle's Medium (DMEM) with 10% fetal bovine serum (FBS) both purchased from Sigma Chemical Co, St. Louis, Mo. Serum-free DMEM was used as a control. […] The fibronectin assay was performed using the recommended 100 μl of the supernatant from each well of the 96-well plate. Standard buffer and stop solutions were freshly prepared before running the assay. A pre-antibody-coated 96 well plate (provided with the kit) was used to transfer the test samples and control. The plate was mixed, sealed and incubated for 1 hour at 37° C. All the wells were washed after removing sample solutions, 3 times (300 μl) with washing buffer. 100 ul of antibody-POD conjugate solution was added into the wells. Plate was mixed, sealed and incubated for one hour at 37° C. Solutions were removed and the wells were washed 3 times with washing buffer. All the wells were completely emptied at the end of washing from any liquid. 100 μl of substrate solution (hydrogen peroxide and tetramethylbenzidine in a buffered solution) was added to each well and the plate was incubated at room temperature for 15 minutes. 100 μl of stop solution (freshly prepared 1N H2SO4) was added to each well in the same order as substrate. The plate was gently mixed and absorbance was read at 450 nm."}, "[3]": {"test_system": "collagen production in human skin fibroblast cell line", "test": "Collagen production by human skin fibroblasts (Takara EIA MK101)", "format": "cell-based", "conditions": "for Collagen Production, Mean (absorbance at 450 nm) / Collagen Production, Median (absorbance at 450 nm): 48 hours, n=2", "method": "The cells were first grown in a 96-well assay system using Dulbecco's Modified Eagle's Medium (DMEM) with 10% fetal bovine serum (FBS) both purchased from Sigma Chemical Co, St. Louis, Mo. Serum-free DMEM was used as a control.\nThe assay was done by using the recommended 20 ul of the supernatant from each well of the 96-well plate. Standard buffer and stop solutions were freshly prepared before running the assay. 100 ul of antibody-POD conjugate solution (supplied with the kit) was added into the wells using pre antibody coated 96 well plate (supplied with the kit). 20 ul of standard and test solutions (from the other 96-well plate containing fibroblasts) were added to appropriate wells. Plate was mixed gently, sealed and incubated for three hrs. at 37° C.\nAfter incubation each well was washed carefully four times with PBS buffer (400 ul). All the wells were completely emptied at the end of washing from any liquid.\n100 ul of substrate solution (hydrogen peroxide and tetramethylbenzidine in a buffer solution, supplied with the kit) was added to each well and the plate was incubated for 15 minutes. At this point 100 ul of stop solution (freshly prepared 1N H2SO4) was added to each well in the same order as substrate. The plate was gently mixed and absorbance was read at 450 nm."}}, "note": "“And” between values parts separate entries of the source, which are not always exact repeats. Equal values may be shown once."}
{"smiles": "CC/C=C\\C[C@H]1C(=O)CC[C@@H]1CC(=O)O", "note": "[jasmonic acid]", "values": [{"measurement": "Cell Proliferation, Mean (absorbance at 490 nm)", "setting": "human skin keratinocytes; 1×10^−4 M", "value": 0.5732}, {"measurement": "Cell Proliferation, Median (absorbance at 490 nm)", "setting": "human skin keratinocytes; 1×10^−4 M", "value": 0.5860}, {"measurement": "cell proliferating activity on human keratinocytes (summary in words)", "setting": "human skin keratinocytes; 1×10^−4 to 1×10^−6 M", "value": "strong cell proliferating activity"}, {"measurement": "Cell Proliferation, Mean (absorbance at 490 nm)", "setting": "human skin keratinocytes; 1×10^−5 M", "value": 0.7628}, {"measurement": "Cell Proliferation, Median (absorbance at 490 nm)", "setting": "human skin keratinocytes; 1×10^−5 M", "value": 0.7750}, {"measurement": "Cell Proliferation, Mean (absorbance at 490 nm)", "setting": "human skin keratinocytes; 1×10^−6 M", "value": 0.7734}, {"measurement": "Cell Proliferation, Median (absorbance at 490 nm)", "setting": "human skin keratinocytes; 1×10^−6 M", "value": 0.7970}, {"measurement": "skin irritation or redness", "setting": "stratum corneum; human, in vivo", "value": "no visible sign of any skin irritation or redness"}, {"measurement": "RENEWAL, time for cell renewal of treated skin", "setting": "stratum corneum; individual patients (one value per patient #), 0.25% in hyaluronic acid (0.5% aqueous solution), topical twice daily, upper inner arm, listed as JA", "value": "16 Days and 15 Days (2×) and 17 Days and 14 Days and 11 Days and 12 Days (2×)"}, {"measurement": "faster cell renewal rate over control", "setting": "stratum corneum; overall, 0.25% topical, vs untreated arm", "value": 28, "unit": "%"}, {"measurement": "reduction in time required for cell renewal vs untreated control", "setting": "stratum corneum; vs volunteers' control without treatment", "value": "about 28%"}, {"measurement": "ME-180 epithelial cell growth (FIGS. 8 and 9)", "setting": "[1]", "value": "increased cell growth in a dose dependent manner"}, {"measurement": "fibronectin production, Mean (absorbance at 450 nm)", "setting": "[2]; 1×10^−4 M", "value": 0.2060}, {"measurement": "fibronectin production, Median (absorbance at 450 nm)", "setting": "[2]; 1×10^−4 M", "value": 0.2060}, {"measurement": "fibronectin production, Mean (absorbance at 450 nm)", "setting": "[2]; 1×10^−5 M", "value": 0.2025}, {"measurement": "fibronectin production, Median (absorbance at 450 nm)", "setting": "[2]; 1×10^−5 M", "value": 0.2025}, {"measurement": "fibronectin production, Mean (absorbance at 450 nm)", "setting": "[2]; 1×10^−6 M", "value": 0.1955}, {"measurement": "fibronectin production, Median (absorbance at 450 nm)", "setting": "[2]; 1×10^−6 M", "value": 0.1955}, {"measurement": "fibronectin production in human fibroblasts (summary in words)", "setting": "[2]; all concentrations tested, vs control", "value": "effective"}, {"measurement": "Collagen Production, Mean (absorbance at 450 nm)", "setting": "[3]; 1×10^−4 M", "value": 0.8040}, {"measurement": "Collagen Production, Median (absorbance at 450 nm)", "setting": "[3]; 1×10^−4 M", "value": 0.8040}, {"measurement": "collagen production in human fibroblasts (summary in words)", "setting": "[3]; 1×10^−4 to 1×10^−6 M", "value": "stimulate collagen production"}, {"measurement": "Collagen Production, Mean (absorbance at 450 nm)", "setting": "[3]; 1×10^−5 M", "value": 0.7895}, {"measurement": "Collagen Production, Median (absorbance at 450 nm)", "setting": "[3]; 1×10^−5 M", "value": 0.7895}, {"measurement": "Collagen Production, Mean (absorbance at 450 nm)", "setting": "[3]; 1×10^−6 M", "value": 0.7475}, {"measurement": "Collagen Production, Median (absorbance at 450 nm)", "setting": "[3]; 1×10^−6 M", "value": 0.7475}]}
